{
  "source": "patent US20230085307A1",
  "about": "“PYRIDAZINONE COMPOUND AND HERBICIDE” (NISSAN CHEMICAL CORPORATION, priority 2019, published 2023)",
  "data": [
    {"system": "blackgrass", "experiment": "Test Example 4: herbicidal effect by soil treatment (Table 19, symbol J)", "assay_type": "in vivo, blackgrass (Alopecurus myosuroides)", "settings": "amount of applied herbicide 320 g/ha", "outline": "(§1)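 Herbicidal effect was rated 3 weeks after treatment, using the scoring criteria of an earlier test. The compound, formulated as an emulsion and diluted in water to a set herbicide amount, had been sprayed uniformly on soil over freshly sown seeds. Growth took place in a greenhouse at 25° C. to 30° C.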", "values": [
      {"smiles": "CCc1ccc(-c2sc3ccc(F)cc3c2-c2c(O)c(C)nn(C)c2=O)cc1", "note": "[2-207]", "J: blackgrass, herbicidal effect rating": "0 (Herbicidal rate of 5% or less (almost no effect))"},
      {"smiles": "Cc1nn(C)c(=O)c(-c2c(-c3cccc(OCC(C)C)c3)sc3ccc(F)cc23)c1O", "note": "[2-221]", "J: blackgrass, herbicidal effect rating": "5 (Herbicidal rate of 90% or more (almost completely withered))"}
    ]},
    {"system": "lambsquarters", "experiment": "Test Example 4: herbicidal effect by soil treatment (Table 19, symbol O)", "assay_type": "in vivo, lambsquarters (Chenopodium album)", "settings": "amount of applied herbicide 320 g/ha", "outline": "as §1", "values": [
      {"smiles": "CCc1ccc(-c2sc3ccc(F)cc3c2-c2c(O)c(C)nn(C)c2=O)cc1", "note": "[2-207]", "O: lambsquarters, herbicidal effect rating": "5 (Herbicidal rate of 90% or more (almost completely withered))"},
      {"smiles": "Cc1nn(C)c(=O)c(-c2c(-c3cccc(OCC(C)C)c3)sc3ccc(F)cc23)c1O", "note": "[2-221]", "O: lambsquarters, herbicidal effect rating": "4 (Herbicidal rate of 70% or more and less than 90%)"}
    ]},
    {"system": "velvetleaf", "experiment": "Test Example 5: herbicidal effect by foliage application, plastic box (Table 20, symbol M)", "assay_type": "in vivo, velvetleaf (Abutilon theophrasti)", "settings": "foliage application, 320 g/ha, evaluated three weeks after application", "outline": "(§2)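 Foliar spray test: emulsion formulation diluted in water to a set application rate, sprayed onto 14-day-old plants raised in diluvial soil at 25° C to 30° C under glass. Both herbicidal effect and crop effect rated visually three weeks later.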", "values": [
      {"smiles": "CCc1ccc(-c2sc3ccc(F)cc3c2-c2c(O)c(C)nn(C)c2=O)cc1", "note": "[2-207]", "herbicidal effect on M: velvetleaf (criteria 0-5)": "5 (Herbicidal rate of 90% or more (almost completely withered))"},
      {"smiles": "Cc1nn(C)c(=O)c(-c2c(-c3cccc(OCC(C)C)c3)sc3ccc(F)cc23)c1O", "note": "[2-221]", "herbicidal effect on M: velvetleaf (criteria 0-5)": "5 (Herbicidal rate of 90% or more (almost completely withered))"}
    ]},
    {"system": "late watergrass", "experiment": "Test Example 2: herbicidal activity, application during weed generation under submerged conditions (Table 17, symbol A)", "assay_type": "in vivo, late watergrass (Echinochloa oryzicola)", "settings": "AAH 320 g/ha; application during weed generation, submerged conditions", "outline": "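Wagner pot, alluvial soil, 4 cm flood; mixed sowing of all species; greenhouse 25° C.–30° C. Emulsifiable formulation, water-diluted to predetermined dose, applied to paddy water at 1–2 leaf stage. Effect rated at 3 wk using the earlier test's scoring criteria.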", "values": [
      {"smiles": "CCc1ccc(-c2sc3ccc(F)cc3c2-c2c(O)c(C)nn(C)c2=O)cc1", "note": "[2-207]", "herbicidal effect rating, A: late watergrass": "3 (Herbicidal rate of 40% or more and less than 70%)"},
      {"smiles": "Cc1nn(C)c(=O)c(-c2c(-c3cccc(OCC(C)C)c3)sc3ccc(F)cc23)c1O", "note": "[2-221]", "herbicidal effect rating, A: late watergrass": "5 (Herbicidal rate of 90% or more (almost completely withered))"}
    ]},
    {"system": "barnyard grass", "experiment": "Test Example 3: herbicidal effect by foliage application, Wagner pot (Table 18, symbol H)", "assay_type": "in vivo, barnyard grass (Echinochloa crus-galli)", "settings": "amount of applied herbicide 320 g/ha", "outline": "(§3)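 Plants were sown in alluvial soil held under 0.1–0.5 cm standing water and grown 14 days in a greenhouse at 25–30 °C. An emulsifiable formulation, water-diluted to the set dose, was then sprayed onto the foliage, and effects were scored three weeks later using previously defined criteria.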", "values": [
      {"smiles": "CCc1ccc(-c2sc3ccc(F)cc3c2-c2c(O)c(C)nn(C)c2=O)cc1", "note": "[2-207]", "herbicidal effect on H: barnyard grass": "4 (Herbicidal rate of 70% or more and less than 90%)"},
      {"smiles": "Cc1nn(C)c(=O)c(-c2c(-c3cccc(OCC(C)C)c3)sc3ccc(F)cc23)c1O", "note": "[2-221]", "herbicidal effect on H: barnyard grass": "5 (Herbicidal rate of 90% or more (almost completely withered))"}
    ]},
    {"system": "Chinese sprangletop", "experiment": "Test Example 3: herbicidal effect by foliage application, Wagner pot (Table 18, symbol D)", "assay_type": "in vivo, chinese sprangletop (Leptochloa chinensis)", "settings": "amount of applied herbicide 320 g/ha", "outline": "as §3", "values": [
      {"smiles": "CCc1ccc(-c2sc3ccc(F)cc3c2-c2c(O)c(C)nn(C)c2=O)cc1", "note": "[2-207]", "herbicidal effect on D: Chinese sprangletop": "5 (Herbicidal rate of 90% or more (almost completely withered))"},
      {"smiles": "Cc1nn(C)c(=O)c(-c2c(-c3cccc(OCC(C)C)c3)sc3ccc(F)cc23)c1O", "note": "[2-221]", "herbicidal effect on D: Chinese sprangletop": "5 (Herbicidal rate of 90% or more (almost completely withered))"}
    ]},
    {"system": "redroot pigweed", "experiment": "Test Example 5: herbicidal effect by foliage application, plastic box (Table 20, symbol N)", "assay_type": "in vivo, redroot pigweed (Amaranthus retroflexus)", "settings": "foliage application, 320 g/ha, evaluated three weeks after application", "outline": "as §2", "values": [
      {"smiles": "CCc1ccc(-c2sc3ccc(F)cc3c2-c2c(O)c(C)nn(C)c2=O)cc1", "note": "[2-207]", "herbicidal effect on N: redroot pigweed (criteria 0-5)": "5 (Herbicidal rate of 90% or more (almost completely withered))"},
      {"smiles": "Cc1nn(C)c(=O)c(-c2c(-c3cccc(OCC(C)C)c3)sc3ccc(F)cc23)c1O", "note": "[2-221]", "herbicidal effect on N: redroot pigweed (criteria 0-5)": "5 (Herbicidal rate of 90% or more (almost completely withered))"}
    ]},
    {"system": "Italian ryegrass", "experiment": "Test Example 4: herbicidal effect by soil treatment (Table 19, symbol K)", "assay_type": "in vivo, Italian ryegrass (Lolium multiflorum)", "settings": "amount of applied herbicide 320 g/ha", "outline": "as §1", "values": [
      {"smiles": "CCc1ccc(-c2sc3ccc(F)cc3c2-c2c(O)c(C)nn(C)c2=O)cc1", "note": "[2-207]", "K: Italian ryegrass, herbicidal effect rating": "4 (Herbicidal rate of 70% or more and less than 90%)"},
      {"smiles": "Cc1nn(C)c(=O)c(-c2c(-c3cccc(OCC(C)C)c3)sc3ccc(F)cc23)c1O", "note": "[2-221]", "K: Italian ryegrass, herbicidal effect rating": "4 (Herbicidal rate of 70% or more and less than 90%)"}
    ]},
    {"system": "persian speedwell", "experiment": "Test Example 4: herbicidal effect by soil treatment (Table 19, symbol R)", "assay_type": "in vivo, Persian speedwell (Veronica persica)", "settings": "amount of applied herbicide 320 g/ha", "outline": "as §1", "values": [
      {"smiles": "CCc1ccc(-c2sc3ccc(F)cc3c2-c2c(O)c(C)nn(C)c2=O)cc1", "note": "[2-207]", "R: persian speedwell, herbicidal effect rating": "5 (Herbicidal rate of 90% or more (almost completely withered))"},
      {"smiles": "Cc1nn(C)c(=O)c(-c2c(-c3cccc(OCC(C)C)c3)sc3ccc(F)cc23)c1O", "note": "[2-221]", "R: persian speedwell, herbicidal effect rating": "5 (Herbicidal rate of 90% or more (almost completely withered))"}
    ]},
    {"system": "southern crabgrass", "experiment": "Test Example 4: herbicidal effect by soil treatment (Table 19, symbol F)", "assay_type": "in vivo, southern crabgrass (Digitaria ciliaris)", "settings": "amount of applied herbicide 320 g/ha", "outline": "as §1", "values": [
      {"smiles": "CCc1ccc(-c2sc3ccc(F)cc3c2-c2c(O)c(C)nn(C)c2=O)cc1", "note": "[2-207]", "F: southern crabgrass, herbicidal effect rating": "3 (Herbicidal rate of 40% or more and less than 70%)"},
      {"smiles": "Cc1nn(C)c(=O)c(-c2c(-c3cccc(OCC(C)C)c3)sc3ccc(F)cc23)c1O", "note": "[2-221]", "F: southern crabgrass, herbicidal effect rating": "5 (Herbicidal rate of 90% or more (almost completely withered))"}
    ]},
    {"system": "lambsquarters", "experiment": "Test Example 5: herbicidal effect by foliage application, plastic box (Table 20, symbol O)", "assay_type": "in vivo, lambsquarters (Chenopodium album)", "settings": "foliage application, 320 g/ha, evaluated three weeks after application", "outline": "as §2", "values": [
      {"smiles": "CCc1ccc(-c2sc3ccc(F)cc3c2-c2c(O)c(C)nn(C)c2=O)cc1", "note": "[2-207]", "herbicidal effect on O: lambsquarters (criteria 0-5)": "5 (Herbicidal rate of 90% or more (almost completely withered))"},
      {"smiles": "Cc1nn(C)c(=O)c(-c2c(-c3cccc(OCC(C)C)c3)sc3ccc(F)cc23)c1O", "note": "[2-221]", "herbicidal effect on O: lambsquarters (criteria 0-5)": "5 (Herbicidal rate of 90% or more (almost completely withered))"}
    ]},
    {"system": "blackgrass", "experiment": "Test Example 5: herbicidal effect by foliage application, plastic box (Table 20, symbol J)", "assay_type": "in vivo, blackgrass (Alopecurus myosuroides)", "settings": "foliage application, 320 g/ha, evaluated three weeks after application", "outline": "as §2", "values": [
      {"smiles": "CCc1ccc(-c2sc3ccc(F)cc3c2-c2c(O)c(C)nn(C)c2=O)cc1", "note": "[2-207]", "herbicidal effect on J: blackgrass (criteria 0-5)": "4 (Herbicidal rate of 70% or more and less than 90%)"},
      {"smiles": "Cc1nn(C)c(=O)c(-c2c(-c3cccc(OCC(C)C)c3)sc3ccc(F)cc23)c1O", "note": "[2-221]", "herbicidal effect on J: blackgrass (criteria 0-5)": "5 (Herbicidal rate of 90% or more (almost completely withered))"}
    ]},
    {"system": "velvetleaf", "experiment": "Test Example 4: herbicidal effect by soil treatment (Table 19, symbol M)", "assay_type": "in vivo, velvetleaf (Abutilon theophrasti)", "settings": "amount of applied herbicide 320 g/ha", "outline": "as §1", "values": [
      {"smiles": "CCc1ccc(-c2sc3ccc(F)cc3c2-c2c(O)c(C)nn(C)c2=O)cc1", "note": "[2-207]", "M: velvetleaf, herbicidal effect rating": "5 (Herbicidal rate of 90% or more (almost completely withered))"},
      {"smiles": "Cc1nn(C)c(=O)c(-c2c(-c3cccc(OCC(C)C)c3)sc3ccc(F)cc23)c1O", "note": "[2-221]", "M: velvetleaf, herbicidal effect rating": "4 (Herbicidal rate of 70% or more and less than 90%)"}
    ]},
    {"system": "windgrass", "experiment": "Test Example 4: herbicidal effect by soil treatment (Table 19, symbol L)", "assay_type": "in vivo, windgrass (Apera spica-venti)", "settings": "amount of applied herbicide 320 g/ha", "outline": "as §1", "values": [
      {"smiles": "CCc1ccc(-c2sc3ccc(F)cc3c2-c2c(O)c(C)nn(C)c2=O)cc1", "note": "[2-207]", "L: windgrass, herbicidal effect rating": "3 (Herbicidal rate of 40% or more and less than 70%)"},
      {"smiles": "Cc1nn(C)c(=O)c(-c2c(-c3cccc(OCC(C)C)c3)sc3ccc(F)cc23)c1O", "note": "[2-221]", "L: windgrass, herbicidal effect rating": "3 (Herbicidal rate of 40% or more and less than 70%)"}
    ]},
    {"system": "late watergrass", "experiment": "Test Example 1: herbicidal activity, application before weed generation under submerged conditions (Table 16, symbol A)", "assay_type": "in vivo, late watergrass (Echinochloa oryzicola)", "settings": "320 g/ha applied herbicide", "outline": "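Alluvial soil was flooded to 4 cm depth, weed seeds were sown mixed and 2.5-leaf rice seedlings were transplanted. On sowing day, the compound's emulsion, diluted in water to a set dose, was applied to the water surface. Plants grew at 25–30 °C and were scored 0–5 after three weeks.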", "values": [
      {"smiles": "CCc1ccc(-c2sc3ccc(F)cc3c2-c2c(O)c(C)nn(C)c2=O)cc1", "note": "[2-207]", "Herbicidal effect on A: late watergrass (grade 0-5)": "2 (Herbicidal rate of 20% or more and less than 40%)"},
      {"smiles": "Cc1nn(C)c(=O)c(-c2c(-c3cccc(OCC(C)C)c3)sc3ccc(F)cc23)c1O", "note": "[2-221]", "Herbicidal effect on A: late watergrass (grade 0-5)": "5 (Herbicidal rate of 90% or more (almost completely withered))"}
    ]},
    {"system": "Italian ryegrass", "experiment": "Test Example 5: herbicidal effect by foliage application, plastic box (Table 20, symbol K)", "assay_type": "in vivo, Italian ryegrass (Lolium multiflorum)", "settings": "foliage application, 320 g/ha, evaluated three weeks after application", "outline": "as §2", "values": [
      {"smiles": "CCc1ccc(-c2sc3ccc(F)cc3c2-c2c(O)c(C)nn(C)c2=O)cc1", "note": "[2-207]", "herbicidal effect on K: Italian ryegrass (criteria 0-5)": "4 (Herbicidal rate of 70% or more and less than 90%)"},
      {"smiles": "Cc1nn(C)c(=O)c(-c2c(-c3cccc(OCC(C)C)c3)sc3ccc(F)cc23)c1O", "note": "[2-221]", "herbicidal effect on K: Italian ryegrass (criteria 0-5)": "5 (Herbicidal rate of 90% or more (almost completely withered))"}
    ]}
  ]
}
